Data on 12 compounds can be found in patent publication EP4763845A1, “CYANO AROMATIC RING DERIVATIVE AND PHARMACEUTICAL USE THEREOF” (Haisco Pharmaceutical Group Co., Ltd., priority 2023, dated 2025).

The structures appear in SMILES notation. Where two headings read alike, the source gives them in different places.

A short description of data set [1]: Pharmacokinetic test in rats. It is filed as in vivo, SD rats. As to conditions: i.g. (5 mg/kg); for AUC(0-t): rat, po. The method, then:
Experimental objective: In this experiment, a single dose of the test compound was administered to SD rats via intravenous administration and intragastric gavage, and the concentration of the test compound in plasma of the rats was measured to evaluate the pharmacokinetic profile of the test compound in the rats.
Experimental animals: Male SD rats, 200-220 g, 6 rats/compound, purchased from Chengdu Ddossy Experimental Animals Co., Ltd.
Experimental method: On the day of the experiment, 6 SD rats were randomly grouped according to their body weights. The animals were fasted with water available for 12 to 14 h one day before the administration, and were fed 4 h after the administration. Table 3 Administration information of pharmacokinetic test in rats
Sampling: Before and after the administration, 0.1 mL of blood was taken from the orbits under isoflurane anaesthesia, and placed in an EDTAK2 centrifuge tube. Centrifugation was carried out at 5000 rpm at 4°C for 10 min, and the plasma was collected.
The plasma collection time points for IV&PO groups were 0, 5 min, 15 min, 30 min, 1 h, 2 h, 4 h, 7 h, 24 h, and 48 h.
Before analysis and detection, all samples were stored at -60°C. The samples were analysed quantitatively by LC-MS/MS. Table 4 Pharmacokinetic parameters of compounds of the present invention in plasma of rats

Another data set concerns VCaP cells. Description: VCaP cell proliferation inhibition experiment (CellTiter-Glo). It is filed as cell-based. Particulars: Homo sapiens, 168 h. How it is done: After centrifugation and resuspension, viable cell counting was performed using a Vi-Cell XR cell counter. […] Then, 180 µl of the cell suspension was added per well to a 96-well cell culture plate at a cell density of 7,500 cells/well. At the time of seeding, T0 wells were also prepared. The following day, R1881 at a final concentration of 0.1 nM and compounds at various concentrations were added. The plate was placed back into the incubator and cultured for an additional 7 days. At the time of compound addition, the T0 plate was measured using the CellTiter-Glo (CTG) kit (Promega, Cat. No. G7572) and recorded as RLU0. Following incubation, 75 µl of pre-thawed and room temperature-equilibrated CellTiter-Glo solution was added to each well. […] The results were processed according to Equation (2). […] Growth% = (RLUcompound−RLU0)/(RLUcontrol−RLU0) × 100% [formula]
(Cellular ATP, detected with luciferase, serves as a proxy for viable cell number.)

For a further data set, the target named is T1, hERG potassium channel (Homo sapiens, UniProt Q12809).
T1 construct: expressed in transfected cells; host or cells: CHO cells stably expressing hERG
T1 sequence (Q12809 whole entry): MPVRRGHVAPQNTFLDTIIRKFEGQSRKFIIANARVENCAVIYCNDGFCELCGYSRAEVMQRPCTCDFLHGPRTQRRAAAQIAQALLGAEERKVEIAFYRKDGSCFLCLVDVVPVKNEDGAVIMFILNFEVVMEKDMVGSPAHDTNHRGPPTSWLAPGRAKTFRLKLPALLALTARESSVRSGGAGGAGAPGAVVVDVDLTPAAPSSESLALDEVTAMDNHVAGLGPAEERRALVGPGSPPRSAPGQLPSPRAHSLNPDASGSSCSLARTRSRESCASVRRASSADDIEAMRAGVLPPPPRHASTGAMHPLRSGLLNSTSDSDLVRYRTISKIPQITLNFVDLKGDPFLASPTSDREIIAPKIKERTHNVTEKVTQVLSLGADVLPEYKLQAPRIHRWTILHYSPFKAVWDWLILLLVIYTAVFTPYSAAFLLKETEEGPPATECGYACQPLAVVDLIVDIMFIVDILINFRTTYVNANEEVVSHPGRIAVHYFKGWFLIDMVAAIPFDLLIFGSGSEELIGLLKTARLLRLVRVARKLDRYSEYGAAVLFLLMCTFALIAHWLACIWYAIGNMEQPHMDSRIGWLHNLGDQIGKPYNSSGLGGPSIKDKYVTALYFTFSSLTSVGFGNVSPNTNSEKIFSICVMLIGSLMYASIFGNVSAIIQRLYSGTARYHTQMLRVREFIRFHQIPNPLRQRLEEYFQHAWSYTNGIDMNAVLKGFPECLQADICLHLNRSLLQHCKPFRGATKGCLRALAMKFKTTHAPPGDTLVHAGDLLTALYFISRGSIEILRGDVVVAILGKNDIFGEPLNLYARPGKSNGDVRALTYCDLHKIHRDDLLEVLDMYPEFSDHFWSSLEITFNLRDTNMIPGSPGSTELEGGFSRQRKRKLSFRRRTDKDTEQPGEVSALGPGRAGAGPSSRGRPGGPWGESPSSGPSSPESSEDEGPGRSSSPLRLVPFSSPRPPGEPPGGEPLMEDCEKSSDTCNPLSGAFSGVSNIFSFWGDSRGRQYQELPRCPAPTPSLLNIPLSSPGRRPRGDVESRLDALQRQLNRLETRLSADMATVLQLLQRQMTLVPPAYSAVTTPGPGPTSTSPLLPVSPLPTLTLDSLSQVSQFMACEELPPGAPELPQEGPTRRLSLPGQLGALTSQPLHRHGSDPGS
Description: hERG potassium ion channel test (manual patch-clamp, CHO cells). It is filed as cell-based. An excerpt:
Experimental platform: Electrophysiological manual patch-clamp system
Cell line: Chinese hamster ovary (CHO) cell lines stably expressing hERG potassium ion channel
Experimental method: In Chinese Hamster Ovary (CHO) cells stably expressing hERG potassium channel, whole cell patch-clamp technique was used to record hERG potassium channel current at room temperature. The glass microelectrode was made of a glass electrode blank (BF150-86-10, Sutter) by a puller. The tip resistance after filling the liquid in the electrode was about 2-5 MΩ. The glass microelectrode can be connected to the patch-clamp amplifier by inserting the glass microelectrode into an amplifier probe. The clamping voltage and data recording were controlled and recorded by the pClamp 10 software through a computer. The sampling frequency was 10 kHz, and the filtering frequency was 2 kHz. After the whole cell records were obtained, the cells were clamped at -80 mV, and the step voltage that induced the hERG potassium current (I hERG) was depolarised from -80 mV to +20 mV for 2 s, then repolarised to -50 mV, and returned to -80 mV after 1 s. This voltage stimulation was given every 10 s, and the administration process was started after the hERG potassium current was confirmed to be stable (at least 1 minute). The compound was administered for at least 1 minute at each test concentration, and at least 2 cells (n ≥ 2) were tested at each concentration.
Data processing: Data analysis processing was carried out by using pClamp 10, GraphPad Prism 5 and Excel software.
Compound IC50 was calculated using GraphPad Prism 5 software by fitting according to the following equation: Y = Bottom + (Top−Bottom)/(1+10^(∧)((LogIC50−X)*HillSlope)) [formula] where X represents the Log value of the tested concentration of the test sample, Y represents the inhibition percentage at the corresponding concentration, and Bottom and Top represent the minimum and maximum inhibition percentage, respectively.
For orientation: hERG is a cardiac potassium channel; its block is linked to QT prolongation.

The target in another data set is T2, AR protein (Homo sapiens, UniProt P10275).
T2 construct: VCap is a human prostate cancer cell line purchased from ATCC; host or cells: VCaP human prostate cancer cells
T2 sequence (P10275 1-920): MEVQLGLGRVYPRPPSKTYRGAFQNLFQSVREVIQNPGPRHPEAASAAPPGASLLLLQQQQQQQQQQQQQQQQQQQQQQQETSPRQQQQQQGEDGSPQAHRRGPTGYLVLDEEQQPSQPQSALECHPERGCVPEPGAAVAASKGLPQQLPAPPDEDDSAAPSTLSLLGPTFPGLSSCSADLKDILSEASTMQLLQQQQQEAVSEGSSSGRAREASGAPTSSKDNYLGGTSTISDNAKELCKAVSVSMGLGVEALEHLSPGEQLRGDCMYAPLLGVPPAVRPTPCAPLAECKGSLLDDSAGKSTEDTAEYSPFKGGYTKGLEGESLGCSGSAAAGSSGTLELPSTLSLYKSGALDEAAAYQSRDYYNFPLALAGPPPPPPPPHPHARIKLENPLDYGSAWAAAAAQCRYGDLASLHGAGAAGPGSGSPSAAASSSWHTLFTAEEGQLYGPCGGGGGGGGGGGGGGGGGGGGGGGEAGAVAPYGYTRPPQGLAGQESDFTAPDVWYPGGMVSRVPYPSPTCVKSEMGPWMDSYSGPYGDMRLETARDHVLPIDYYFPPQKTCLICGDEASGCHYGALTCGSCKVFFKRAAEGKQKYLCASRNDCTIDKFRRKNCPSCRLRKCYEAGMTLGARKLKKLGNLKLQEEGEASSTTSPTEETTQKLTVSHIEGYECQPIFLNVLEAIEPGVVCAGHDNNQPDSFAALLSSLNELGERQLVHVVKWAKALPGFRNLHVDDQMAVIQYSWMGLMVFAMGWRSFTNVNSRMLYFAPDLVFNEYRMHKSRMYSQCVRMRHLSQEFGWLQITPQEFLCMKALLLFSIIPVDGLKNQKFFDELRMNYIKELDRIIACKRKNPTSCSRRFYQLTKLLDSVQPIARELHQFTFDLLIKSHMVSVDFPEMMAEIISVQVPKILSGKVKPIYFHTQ
Briefly: Detection of AR degradation in VCaP cells (automated western blot). It is filed as cell-based. Particulars: for DC50: degradation of AR protein in VCaP cells, 24 hours incubation, read-out: DC50. The method, then: VCap is a human prostate cancer cell line purchased from ATCC and cultured under the following conditions: DMEM + 10% FBS + 1% penicillin-streptomycin solution. The cells were cultured in a 37°C, 5% CO2 incubator. The cells were seeded in a 6-well plate, with 5 × 10^5 cells/well. After seeding, compounds at various concentrations were added, and the plate was incubated for 24 hours in the 37°C, 5% CO2 incubator. Following incubation, the cells were harvested and RIPA lysis buffer (beyotime, Cat. P0013B) was added. The cells were lysed on ice for 15 minutes and centrifuged at 12,000 rpm at 4°C for 10 minutes. The supernatant protein samples were collected and the protein was quantified using the BCA kit (Beyotime, Cat. P0009). Then the protein was diluted to 0.25 mg/mL. The expressions of AR (CST, Cat.5153S) and the internal reference β-actin (CST, Cat. 3700S) were detected using a fully automated western blot quantitative analyser (Proteinsimple). Using the "Compass for SW" software, the relative peak area of AR was calculated when the internal reference area was 10,000. The proportion of AR relative to the solvent control group at various drug concentrations was calculated according to Equation (1), where ARtreat represents the relative peak area of the compound-treated group, and ARsolvent represents the relative peak area of the solvent control group. The processed data obtained from Equation (1) were analysed using GraphPad Prism 8.3.0 software, and the DC50 value was calculated using a four-parameter nonlinear regression model. The degradation rate at a specified concentration was determined as 100-AR%. AR% = ARtreat/ ARsolvent × 100% [formula]
On the technique in general: Immunoblotting shows a protein as a band on a membrane.

[2] abbreviates: chinese hamster, inhibitory activity against hERG potassium channel current, CHO cells, whole cell patch-clamp, read-out: IC50.

Usually AUC(0-t) stands for exposure summed from dosing to a finite time, without extrapolation to infinity. A higher AUC(0-t) goes with high exposure. The GI50 is the concentration at which growth is held to half of that of the control. The low end stands for more potent growth inhibition, the high end for less potent growth inhibition. Compound `COc1cc(O[C@H]2C(C)(C)[C@H](NC(=O)c3ccc(N4CCC(CN5CCN6c7cc(F)c(C8CCC(=O)NC8=O)cc7CC[C@H]6C5)CC4)cc3)C2(C)C)ccc1C#N` (some centres unmarked) [Compound 1] came in with a F in data set [1] (vehicle 5% DMSO+5% Solutol+90% (20% SBE-β-CD)) of 46.5±8.6%. Moreover, the AUC(0-t) in data set [1] (in vivo, vehicle 5% DMSO+5% Solutol+90% (20% SBE-β-CD)) was found to be 5490 ± 1010 ng·h/mL. In addition, the GI50 with VCaP cells is under 0.3 µM.
In the case of `COc1cc(O[C@H]2C(C)(C)[C@H](NC(=O)c3ccc(N4CCC(CN5CCN6c7cc(F)c(C8CCC(=O)NC8=O)cc7CC[C@@H]6C5)CC4)cc3)C2(C)C)ccc1C#N` (some centres unmarked) [Compound 2], the F in data set [1] (vehicle 5% DMSO+ 5% Solutol+30% PEG-400+60% (20% SBE-β-CD)) is listed as 61.4+9.1%. This compound also registered an AUC(0-t) in data set [1] (in vivo, vehicle 5% DMSO+ 5% Solutol+30% PEG-400+60% (20% SBE-β-CD)) of 6010 ± 889 ng·h/mL.
The term IC50 denotes the concentration needed to halve the response being measured. As for `COc1cc(O[C@H]2C(C)(C)[C@H](NC(=O)c3ccc(N4CCC(CN5CCN6c7cc(F)c(N8CCC(=O)NC8=O)cc7CC[C@@H]6C5)CC4)cc3)C2(C)C)ccc1C#N` [Compound 28], the IC50 against hERG potassium channel was over 40 µM.
Broadly, the DC50 is the concentration giving 50% degradation. In the case of `CC1(C)[C@H](NC(=O)c2ccc(N3CCC(CN4CCN5c6cc(F)c(C(=O)N[C@H]7CCC(=O)NC7=O)cc6CC[C@@H]5C4)CC3)cc2)C(C)(C)[C@H]1Oc1ccc(C#N)c2ncccc12` [Compound 34], on AR protein, the DC50 was under 0.1 µM. The IC50 on hERG potassium channel (setting [2]) was over 40 µM.
`CC1(C)[C@H](NC(=O)c2ccc(N3CCC(CN4CCN5c6cc(F)c(C(=O)N[C@H]7CCC(=O)NC7=O)cc6CC[C@H]5C4)CC3)cc2)C(C)(C)[C@H]1Oc1ccc(C#N)c2ncccc12` [Compound 35]: the DC50 on AR protein is under 0.1 µM. Further, the IC50 at hERG potassium channel (setting [2]) was over 40 µM.
Taken in the same sequence, the figures for `CC1(C)[C@H](NC(=O)c2ccc(N3CCC4(CC3)CC(CN3CCN5c6cc(F)c(C7CCC(=O)NC7=O)cc6CC[C@H]5C3)C4)cc2)C(C)(C)[C@H]1Oc1ccc(C#N)c2ncccc12` (some centres unmarked) [Compound 73] were under 0.1 µM and over 40 µM.
Turning to `COc1cc(O[C@H]2C(C)(C)[C@H](NC(=O)c3ccc(N4CCC5(CC4)CC(N4CCN6c7cc(F)c(N8CCC(=O)NC8=O)cc7CC[C@@H]6C4)C5)cc3)C2(C)C)ccc1C#N` [Compound 79], the DC50 at AR protein is under 0.1 µM. The compound also had an AUC(0-t) in data set [1] (male, SD, plasma, vehicle 5% DMSO+5% Solutol+10% PEG400+80% (20% SBE-β-CD)) of 6970 ng·h/mL. The GI50 in the data set on VCaP cells was under 0.3 µM. For the same compound, the IC50 on hERG potassium channel (human, CHO cells stably expressing hERG potassium channel, inhibitory activity against hERG potassium channel current, CHO cells, whole cell patch-clamp, read-out: IC50) was over 40 µM.
In turn, `CC1(C)[C@H](NC(=O)c2ccc(N3CCC(CN4CCN5c6cc(F)c(C7CCC(=O)NC7=O)cc6CC[C@H]5C4)CC3)cc2)C(C)(C)[C@H]1Oc1ccc(C#N)c(C2CC2)c1` (some centres unmarked) [Compound 118] yielded a Degradation rate % at AR protein (AR protein in VCaP cells, concentration of 30 nM, 24 hours) of over 70%. For the same compound, the IC50 at hERG potassium channel (inhibitory activity against hERG potassium channel current, CHO cells, whole cell patch-clamp, read-out: IC50) is over 40 µM.
In the case of `COc1cc(O[C@H]2C(C)(C)[C@H](NC(=O)c3ccc(N4CCC(CN5CCN6c7cc(F)c(C8CCC(=O)NC8=O)cc7CC[C@H]6C5)CC4)cc3)C2(C)C)ccc1C#N` (some centres unmarked) [Trifluoroacetate of compound 1], the DC50 at AR protein is under 0.1 µM. The same compound returned an IC50 against hERG potassium channel (chinese hamster, cho cells) of over 40 µM.
As for `COc1cc(O[C@H]2C(C)(C)[C@H](NC(=O)c3ccc(N4CCC(CN5CCN6c7cc(F)c(C8CCC(=O)NC8=O)cc7CC[C@@H]6C5)CC4)cc3)C2(C)C)ccc1C#N` (some centres unmarked) [Trifluoroacetate of compound 2], at AR protein, the DC50 was under 0.1 µM. At hERG potassium channel, this compound returned an IC50 of over 40 µM.
Consider `COc1cc(O[C@H]2C(C)(C)[C@H](NC(=O)c3ccc(N4CCC(CN5CCN6c7cc(F)c(C(=O)NC8CCC(=O)NC8=O)cc7CC[C@H]6C5)CC4)cc3)C2(C)C)ccc1C#N` (some centres unmarked) [Trifluoroacetate of compound 3], for which the DC50 on AR protein was under 0.1 µM. Besides, at hERG potassium channel (setting [2]), the IC50 is over 40 µM.
In the case of `COc1cc(O[C@H]2C(C)(C)[C@H](NC(=O)c3ccc(N4CCC(CN5CCN6c7cc(F)c(C(=O)NC8CCC(=O)NC8=O)cc7CC[C@@H]6C5)CC4)cc3)C2(C)C)ccc1C#N` (some centres unmarked) [Trifluoroacetate of compound 4], the DC50 at AR protein is under 0.1 µM. Moreover, the IC50 at hERG potassium channel (setting [2]) was over 40 µM.
